Broadly, the IC50 is the concentration at which inhibition is half-maximal.

In assay [1] the target is Vascular endothelial growth factor receptor 2 (Homo sapiens, UniProt P35968). Briefly: Inhibition of N-terminal GST-tagged human VEGFR-2 cytoplasmic domain (790 to 1356 residues) expressed in baculovirus expression system preincubated for 10 mins followed by FAM-labelled peptide substrate addition by caliper mobility shift assay.
Assay [2] is described as follows: Antiproliferative activity against human HT-29 cells measured after 48 hrs by MTT assay. The format is functional, cell-based. Conditions: HT-29, 48 h. (Formazan colour is commonly taken as a measure of viable cells.)
A short description of assay [3]: Antiproliferative activity against human MCF7 cells measured after 48 hrs by MTT assay. The class given is functional, cell-based. The settings on record: MCF7, 48 h.
Assay [4] can be described thus: Antiproliferative activity against human H460 cells measured after 48 hrs by MTT assay. The format is functional, cell-based. The settings on record: NCI-H460, 48 h.
The target in assay [5] is Epidermal growth factor receptor (Homo sapiens, UniProt P00533).

A value given as a limit tells only on which side of the number the result lay.

Chain of Epidermal growth factor receptor (P00533 whole entry): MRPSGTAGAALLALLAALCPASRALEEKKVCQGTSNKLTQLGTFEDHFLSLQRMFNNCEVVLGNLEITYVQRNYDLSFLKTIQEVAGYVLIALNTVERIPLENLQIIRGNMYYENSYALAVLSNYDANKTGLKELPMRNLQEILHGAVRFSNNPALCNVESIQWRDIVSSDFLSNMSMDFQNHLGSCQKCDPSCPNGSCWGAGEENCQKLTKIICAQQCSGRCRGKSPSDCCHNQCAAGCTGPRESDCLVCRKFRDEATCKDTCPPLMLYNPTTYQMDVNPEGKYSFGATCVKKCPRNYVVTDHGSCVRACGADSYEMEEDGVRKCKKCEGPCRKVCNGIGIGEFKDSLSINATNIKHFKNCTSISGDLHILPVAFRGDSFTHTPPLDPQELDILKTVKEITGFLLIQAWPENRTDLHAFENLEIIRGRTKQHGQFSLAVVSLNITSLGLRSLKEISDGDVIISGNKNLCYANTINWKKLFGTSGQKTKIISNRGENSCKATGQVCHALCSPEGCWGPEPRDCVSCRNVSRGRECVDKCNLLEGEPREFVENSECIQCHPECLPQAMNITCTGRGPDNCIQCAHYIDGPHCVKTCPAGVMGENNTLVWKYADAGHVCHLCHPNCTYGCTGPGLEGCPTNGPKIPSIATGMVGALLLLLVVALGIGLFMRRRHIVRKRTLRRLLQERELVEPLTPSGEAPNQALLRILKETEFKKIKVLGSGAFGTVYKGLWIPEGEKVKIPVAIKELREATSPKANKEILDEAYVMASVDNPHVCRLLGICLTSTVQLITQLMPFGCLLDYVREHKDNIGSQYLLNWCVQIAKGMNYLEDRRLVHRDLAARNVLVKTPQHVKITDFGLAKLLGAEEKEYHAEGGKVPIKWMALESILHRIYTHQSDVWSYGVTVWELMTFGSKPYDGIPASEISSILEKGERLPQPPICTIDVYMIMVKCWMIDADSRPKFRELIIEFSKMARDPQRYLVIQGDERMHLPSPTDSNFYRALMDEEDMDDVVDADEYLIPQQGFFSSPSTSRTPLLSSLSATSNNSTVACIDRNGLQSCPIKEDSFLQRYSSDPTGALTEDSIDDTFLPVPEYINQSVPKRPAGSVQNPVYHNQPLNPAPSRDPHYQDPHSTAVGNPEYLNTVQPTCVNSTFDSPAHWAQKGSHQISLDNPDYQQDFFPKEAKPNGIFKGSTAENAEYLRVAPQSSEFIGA
Chain of Vascular endothelial growth factor receptor 2 (P35968 whole entry, the tested form may be a part): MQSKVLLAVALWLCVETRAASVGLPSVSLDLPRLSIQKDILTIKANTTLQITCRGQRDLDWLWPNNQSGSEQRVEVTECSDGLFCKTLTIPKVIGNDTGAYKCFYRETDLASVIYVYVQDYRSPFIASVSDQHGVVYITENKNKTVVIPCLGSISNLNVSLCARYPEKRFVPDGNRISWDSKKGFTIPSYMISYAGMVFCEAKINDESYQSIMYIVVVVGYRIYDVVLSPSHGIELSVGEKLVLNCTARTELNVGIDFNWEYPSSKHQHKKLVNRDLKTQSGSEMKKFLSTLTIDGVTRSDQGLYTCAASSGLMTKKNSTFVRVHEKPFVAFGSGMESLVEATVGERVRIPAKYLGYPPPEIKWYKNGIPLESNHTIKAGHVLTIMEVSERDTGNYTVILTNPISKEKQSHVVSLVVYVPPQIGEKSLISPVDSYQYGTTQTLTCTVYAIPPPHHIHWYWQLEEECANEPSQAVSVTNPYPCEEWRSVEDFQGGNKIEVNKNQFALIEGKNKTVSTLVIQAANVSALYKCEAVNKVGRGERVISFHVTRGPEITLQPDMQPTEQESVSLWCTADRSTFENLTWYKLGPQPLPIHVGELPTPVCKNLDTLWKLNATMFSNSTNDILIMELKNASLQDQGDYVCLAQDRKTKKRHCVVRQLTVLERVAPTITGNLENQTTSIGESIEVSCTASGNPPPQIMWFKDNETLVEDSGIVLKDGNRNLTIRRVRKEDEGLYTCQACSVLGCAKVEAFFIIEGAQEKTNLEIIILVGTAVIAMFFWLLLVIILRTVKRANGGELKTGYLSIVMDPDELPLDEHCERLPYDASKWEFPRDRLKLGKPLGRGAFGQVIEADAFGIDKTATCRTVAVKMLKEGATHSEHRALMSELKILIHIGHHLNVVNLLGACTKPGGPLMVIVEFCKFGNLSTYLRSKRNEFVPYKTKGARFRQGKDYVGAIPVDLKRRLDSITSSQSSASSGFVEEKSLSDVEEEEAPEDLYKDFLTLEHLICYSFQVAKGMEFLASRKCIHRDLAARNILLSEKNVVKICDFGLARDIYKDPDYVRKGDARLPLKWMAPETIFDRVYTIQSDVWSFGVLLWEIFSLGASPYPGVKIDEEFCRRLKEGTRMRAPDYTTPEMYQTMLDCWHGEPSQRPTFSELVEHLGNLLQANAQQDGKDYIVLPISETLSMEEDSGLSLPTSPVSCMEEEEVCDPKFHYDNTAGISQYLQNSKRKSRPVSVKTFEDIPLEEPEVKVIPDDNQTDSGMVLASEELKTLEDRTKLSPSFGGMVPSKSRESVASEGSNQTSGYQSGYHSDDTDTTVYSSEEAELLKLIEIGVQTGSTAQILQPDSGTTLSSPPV

Take `COc1cc2c(Nc3ccc(NC(=O)Nc4ccccc4C)cc3)ncnc2cc1OCc1ccccc1`: the half-maximal inhibitory concentration (IC50) is greater than 10 µM in assay [1]; 28.8 µM in assay [2]; greater than 50 µM in assay [3]; 23.9 µM in assay [4]; greater than 10 µM in assay [5].
For `COc1cc2c(Nc3ccc(NC(=O)Nc4ccccc4)cc3)ncnc2cc1OCCCN1CCN(C)CC1`, the half-inhibitory concentration (IC50) in assay [1] worked out at 0.576 µM; in assay [2], 49.4 µM; in assay [3], 29.1 µM; in assay [4], 28.4 µM; in assay [5] it was 0.194 µM.
On the same counts, the results for `COc1cc2c(Nc3ccc(NC(=O)Nc4ccc(Cl)cc4)c(Cl)c3)ncnc2cc1OCCN1CCCCC1` are greater than 10 µM, 4.38 µM, 1.89 µM, 5 µM and greater than 10 µM.
On the same counts, the results for `COc1cc2c(Nc3ccc(NC(=O)Nc4ccc(F)c(Cl)c4)c(Cl)c3)ncnc2cc1OCCCN1CCN(C)CC1` are 0.014 µM, 6.41 µM, 3.2 µM, 12.1 µM and 0.078 µM.
The corresponding values for `COc1cc2c(Nc3ccc(NC(=O)Nc4ccc(C)c(C)c4)c(Cl)c3)ncnc2cc1OCCCN1CCOCC1` are 0.014 µM, 7.29 µM, 2.63 µM, 3.52 µM and 0.051 µM.
As for `COc1cc2c(Nc3ccc(NC(=O)Nc4ccc(C)c(C)c4)cc3)ncnc2cc1OCc1ccccc1`, the half-maximal inhibitory concentration (IC50) in assay [1] is greater than 10 µM; in assay [2], greater than 50 µM; in assay [3], greater than 50 µM; in assay [4], 49.6 µM; in assay [5] it was greater than 10 µM.
On to `COc1cc2c(Nc3ccc(NC(=O)Nc4ccc(C)c(C)c4)c(Cl)c3)ncnc2cc1OCCN1CCCCC1`, for which the 50% inhibitory concentration (IC50) came out at 0.018 µM in assay [1]; 1.85 µM in assay [2]; 1.27 µM in assay [3]; 2.9 µM in assay [4]; 0.817 µM in assay [5].
On the same counts, the results for `COc1cc2c(Nc3ccc(NC(=O)Nc4ccc(Cl)cc4)c(Cl)c3)ncnc2cc1OCCCN1CCN(C)CC1` are 0.279 µM, 20.7 µM, greater than 50 µM, 28 µM and 0.001 µM.
As to `COc1cc2c(Nc3ccc(NC(=O)Nc4ccccc4)cc3)ncnc2cc1OCc1ccccc1`, the half-inhibitory concentration (IC50) is greater than 10 µM in assay [1]; greater than 50 µM in assay [2]; 22.8 µM in assay [3]; greater than 50 µM in assay [4]; 2.93 µM in assay [5].
Consider `COc1cc2/c(=N/c3ccc(Br)cc3F)nc[nH]c2cc1OCC1CCN(C)CC1` [VANDETANIB], for which the figures for the IC50 in assay [2], in assay [3] and in assay [4] were 18.9 µM, 11.8 µM and 37.1 µM, respectively.
For the molecule `COC(=O)CNC(=O)c1ccc(Nc2ncnc3cc(OCCN4CCCCC4)c(OC)cc23)cc1`, the IC50 is 0.966 µM in assay [1], greater than 50 µM in assay [2], 8.39 µM in assay [3] and greater than 50 µM in assay [4].
On to `COc1cc2c(Nc3ccc(NC(=O)Nc4ccccc4)c(Cl)c3)ncnc2cc1OCCCN1CCN(C)CC1`, for which the IC50 in assay [1] was 0.261 µM; in assay [2], 17.3 µM; in assay [3], greater than 50 µM; in assay [4] it was 33 µM; in assay [5], 0.014 µM.
In the case of `COc1cc2c(Nc3ccc(NC(=O)Nc4ccc(C)c(C)c4)c(Cl)c3)ncnc2cc1OCCCN1CCN(C)CC1`, the IC50 in assay [1] stood at 0.079 µM; in assay [2], 1.76 µM; in assay [3], 7.28 µM; in assay [4], 26 µM; in assay [5], 0.001 µM.
The corresponding values for `COc1cc2c(Nc3ccc(NC(=O)Nc4ccc(Cl)cc4)c(Cl)c3)ncnc2cc1OCCCN1CCOCC1` are 0.528 µM, 22 µM, 39.2 µM, 28 µM and 0.017 µM.
The corresponding values for `COC(=O)CNC(=O)c1ccc(Nc2ncnc3cc(OCCCN4CCN(C)CC4)c(OC)cc23)cc1` are 0.275 µM, greater than 50 µM, greater than 50 µM, greater than 50 µM and 0.611 µM.
On the same counts, the results for `COc1cc2c(Nc3ccc(NC(=O)Nc4cccc(Cl)c4)cc3)ncnc2cc1OCCCN1CCN(C)CC1` are 0.588 µM, 22.9 µM, 24.7 µM, 8.16 µM and 0.5 µM.
For `COc1cc2c(Nc3ccc(NC(=O)Nc4ccc(C)cc4)cc3)ncnc2cc1OCc1ccccc1`, the concentration for half-maximal inhibition (IC50) in assay [1] is greater than 10 µM; in assay [2], greater than 50 µM; in assay [3], greater than 50 µM; in assay [4], 25.4 µM; in assay [5], greater than 10 µM.
As to `COc1cc2c(Nc3ccc(NC(=O)Nc4ccccc4C)c(Cl)c3)ncnc2cc1OCCCN1CCN(C)CC1`, the IC50 in assay [1] was 0.178 µM; in assay [2], 4.81 µM; in assay [3], 6.21 µM; in assay [4], greater than 50 µM.
In the case of `COc1cc2c(Nc3ccc(NC(=O)Nc4ccc(C)c(C)c4)cc3)ncnc2cc1OCCCN1CCN(C)CC1`, the IC50 is 0.214 µM in assay [1]; 25.9 µM in assay [2]; 36.5 µM in assay [3]; 22 µM in assay [4]; 0.668 µM in assay [5].
Turning to `COc1cc2c(Nc3ccc(NC(=O)Nc4ccc(Cl)cc4)cc3)ncnc2cc1OCc1ccccc1`, the IC50 in assay [1] was greater than 10 µM; in assay [2], greater than 50 µM; in assay [3] it was greater than 50 µM; in assay [4], 38.8 µM; in assay [5], greater than 10 µM.
In the case of `COc1cc2c(Nc3ccc(NC(=O)Nc4ccc(Cl)cc4)cc3)ncnc2cc1OCCCN1CCN(C)CC1`, the 50% inhibitory concentration (IC50) in assay [1] is 0.815 µM; in assay [2], 28.7 µM; in assay [3], greater than 50 µM; in assay [4], 17.8 µM; in assay [5], 0.235 µM.
On to `COc1cc2c(Nc3ccc(NC(=O)Nc4ccccc4)c(Cl)c3)ncnc2cc1OCCN1CCCCC1`, for which the IC50 in assay [1] is 1.87 µM; in assay [2] it was greater than 50 µM; in assay [3], greater than 50 µM; in assay [4], greater than 50 µM; in assay [5], 0.212 µM.
As for `COc1cc2c(Nc3ccc(NC(=O)Nc4cccc(Cl)c4)cc3)ncnc2cc1OCc1ccccc1`, the half-inhibitory concentration (IC50) in assay [1] was greater than 10 µM; in assay [2], greater than 50 µM; in assay [3], greater than 50 µM; in assay [4], greater than 50 µM; in assay [5], 4.65 µM.
In the case of `COC(=O)CNC(=O)c1ccc(Nc2ncnc3cc(OCCCN4CCOCC4)c(OC)cc23)cc1`, the IC50 was 0.404 µM in assay [1]; greater than 50 µM in assay [2]; greater than 50 µM in assay [3]; greater than 50 µM in assay [4]; 0.763 µM in assay [5].
Take `COc1cc2c(Nc3ccc(NC(=O)Nc4ccccc4C)cc3)ncnc2cc1OCCCN1CCN(C)CC1`: the IC50 in assay [1] is 1.99 µM; in assay [2], greater than 50 µM; in assay [3], 32.2 µM; in assay [4] it was 22.3 µM; in assay [5] it was 0.502 µM.

Values taken from ChEMBL document CHEMBL3877259, “Design and discovery of 4-anilinoquinazoline-urea derivatives as dual TK inhibitors of EGFR and VEGFR-2” (Eur J Med Chem, 2017).
